Test results: PubChem BioAssay (NCI)
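1) Cells in 96-well plates. 2) Compound, 48 h, 5 concentrations. 3) Linear interpolation between surrounding doses. 4) Unreached endpoint = highest concentration. At the GI50, growth is halved. TGI: concentration producing complete growth inhibition.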

Legend:
Assay in all cases: growth of human tumour cells (NCI), 48 h
[1] = test system: SNB-75 CNS
[2] = test system: NCI-H522 lung
[3] = test system: A498 renal
[4] = test system: EKVX NSCLC
[5] = test system: HOP-92 NSCLC
[6] = test system: DU-145 prostate
[7] = test system: OVCAR-3 ovarian
[8] = test system: SK-MEL-28 melanoma
[9] = test system: PC-3 prostate
[10] = test system: SF-295 CNS
[11] = test system: IGROV1 ovarian
[12] = test system: MDA-MB-231 breast
[13] = test system: SK-OV-3 ovarian
[14] = test system: A549 NSCLC
[15] = test system: TK-10 renal
[16] = test system: HT29 colon
[17] = test system: HCT-116 colon
[18] = test system: CCRF-CEM leukemia
[19] = test system: UO-31 renal
[20] = test system: SF-539 CNS
[21] = test system: MCF7 breast
[22] = test system: M14 melanoma
[23] = test system: RPMI-8226 leukemia
[24] = test system: K-562 leukemia
[25] = test system: MOLT-4 leukemia
[26] = test system: OVCAR-5 ovarian
[27] = test system: NCI-H23 lung
[28] = test system: LOX IMVI melanoma
[29] = test system: HOP-62 NSCLC
[30] = test system: MDA-MB-468 breast
[31] = test system: HCC-2998 colon
[32] = test system: MALME-3M melanoma
[33] = test system: OVCAR-4 ovarian
[34] = test system: HL-60(TB) leukemia
[35] = test system: UACC-62 melanoma
[36] = test system: BT-549 breast
[37] = test system: NCI-H226 lung
[38] = test system: NCI-H460 lung
[39] = test system: SW-620 colon
[40] = test system: SN12C renal
[41] = test system: SK-MEL-2 melanoma
[42] = test system: SNB-19 CNS
[43] = test system: OVCAR-8 ovarian
[44] = test system: SR leukemia
[45] = test system: ACHN renal
[46] = test system: HCT-15 colon
[47] = test system: SF-268 CNS
[48] = test system: MDA-MB-435
[49] = test system: NCI/ADR-RES ovarian
[50] = test system: U251 CNS
[51] = test system: SK-MEL-5 melanoma
[52] = test system: RXF 393 renal
[53] = test system: COLO 205 colon
[54] = test system: CAKI-1 renal
[55] = test system: HS 578T breast
[56] = test system: T-47D breast
[57] = test system: 786-0 renal
[58] = test system: UACC-257 melanoma
[59] = test system: KM12 colon

What does the source list for `O=C(CNc1nc(-c2ccccc2)cs1)Nc1ccc([N+](=O)[O-])cc1`?
GI50 [1]: 3.16 µM; TGI [1]: 15.5 µM; GI50 [2]: 1.9 µM; TGI [2]: 3.92 µM; GI50 [3]: 16.9 µM; TGI [3]: 32.3 µM; GI50 [4]: 3.8 µM; TGI [4]: 14.6 µM; GI50 [5]: 6.65 µM; TGI [5]: 25.1 µM; GI50 [6]: 10.9 µM; TGI [6]: 25.4 µM; GI50 [7]: 3.65 µM; TGI [7]: 13.3 µM; GI50 [8]: 10.3 µM; TGI [8]: 21.9 µM; GI50 [9]: 4.75 µM; TGI [9]: 23.2 µM; GI50 [10]: 8.63 µM; TGI [10]: 21.6 µM; GI50 [11]: 3.84 µM; TGI [11]: 16 µM; GI50 [12]: 3.07 µM; TGI [12]: 12.5 µM; GI50 [13]: 16.4 µM; TGI [13]: 40.1 µM; GI50 [14]: 9.71 µM; TGI [14]: 24.4 µM; GI50 [15]: 11.1 µM; TGI [15]: 24.2 µM; GI50 [16]: 3.73 µM; TGI [16]: 15.8 µM; GI50 [17]: 3.22 µM; TGI [17]: 14.2 µM; GI50 [18]: 2.71 µM; TGI [18]: 13.4 µM; GI50 [19]: 4.58 µM; TGI [19]: 18.1 µM; GI50 [20]: 3.19 µM; TGI [20]: 10.2 µM; GI50 [21]: 2.9 µM; TGI [21]: 12.1 µM; GI50 [22]: 5.07 µM; TGI [22]: 19.7 µM; GI50 [23]: 3.25 µM; TGI [23]: 19.8 µM; GI50 [24]: 3.26 µM; TGI [24]: > 100 µM; GI50 [25]: 3.66 µM; TGI [25]: 23 µM; GI50 [26]: 7.22 µM; TGI [26]: 20.1 µM; GI50 [27]: 3.32 µM; TGI [27]: 13.7 µM; GI50 [28]: 2.2 µM; TGI [28]: 11.1 µM; GI50 [29]: 14.4 µM; TGI [29]: 35 µM; GI50 [30]: 1.55 µM; TGI [30]: 3.16 µM; GI50 [31]: 3.5 µM; TGI [31]: 12.9 µM; GI50 [32]: 2.29 µM; TGI [32]: 6.21 µM; GI50 [33]: 3.52 µM; TGI [33]: 12.8 µM; GI50 [34]: 2.97 µM; TGI [34]: 10.6 µM; GI50 [35]: 4.41 µM; TGI [35]: 17 µM; GI50 [36]: 2.35 µM; TGI [36]: 10.1 µM; GI50 [37]: 12.5 µM; TGI [37]: 28.3 µM; GI50 [38]: 10.2 µM; TGI [38]: 23.8 µM; GI50 [39]: 5.01 µM; TGI [39]: 18 µM; GI50 [40]: 3.37 µM; TGI [40]: 13.6 µM; GI50 [41]: 14.2 µM; TGI [41]: 30.5 µM; GI50 [42]: 10.7 µM; TGI [42]: 22.5 µM; GI50 [43]: 11.1 µM; TGI [43]: 28.2 µM; GI50 [44]: 6.62 µM; TGI [44]: 41.3 µM; GI50 [45]: 2.39 µM; TGI [45]: 6.98 µM; GI50 [46]: 3.47 µM; TGI [46]: 13.1 µM; GI50 [47]: 4.82 µM; TGI [47]: 29.5 µM; GI50 [48]: 6.79 µM; TGI [48]: 19.2 µM; GI50 [49]: 3.77 µM; TGI [49]: 20.4 µM; GI50 [50]: 2.85 µM; TGI [50]: 11.1 µM; GI50 [51]: 5.82 µM; TGI [51]: 18.6 µM; GI50 [52]: 2.77 µM; GI50 [53]: 4.59 µM; TGI [53]: 15.9 µM; GI50 [54]: 5.26 µM; TGI [54]: 18.3 µM; GI50 [55]: 10.2 µM; TGI [55]: > 100 µM; GI50 [56]: 4.23 µM; TGI [56]: 21.3 µM; GI50 [57]: 4.1 µM; TGI [57]: 14.1 µM; GI50 [58]: 8.41 µM; TGI [58]: 21.8 µM; GI50 [59]: 8.27 µM; TGI [59]: 20.7 µM
